According to US20080241081A1, “AMIDE COMPOUND OR SALT THEREOF, AND BIOFILM REMOVER CONTAINING THE SAME” (priority 2006, published 2008):

How the values were obtained:
[1] = test system: biofilm formed by Pseudomonas aeruginosa (gfp expression PAO1-strain); assay: Evaluation test for removing biofilms formed by Pseudomonas aeruginosa (flow cell system, fluorescence confocal microscope); type: cell-based; conditions: test liquid 100 μM compound; for biofilm removal effect (conclusion): flow cell system, up to 10 days; for state of deposited biofilm observed over time: flow 200 μL per minute, observed after 3, 4, 5, 6, 7 and 10 days, compared with DMSO control test liquid
Experimental: Each of the amide compounds (Compound 1a-1, 1a-2, 1b-1 and 1c-1) produced in Production Examples 1 to 4 was evaluated for its biofilm removal effect, using the flow cell system shown in FIG. 1.
A culture medium bottle (1), a peristaltic pump (2), a glass cell (4) and a waste fluid bottle (5) are connected via a silicon tube (6) so that a culture medium (9) is supplied to the glass cell from the culture medium bottle (1) using the peristaltic pump (2). The system includes an air removal section (3) between the peristaltic pump (2) and a turncock (7a), for removing the entrained air. All tools in the flow cell system are sterilized using gamma-rays or an autoclave.
As specifically described later, the effect for removing biofilms is examined in the following manner. Bacteria are cultured in a glass cell (4) to grow a biofilm on the inner wall of the cell, and a test liquid containing one of the amide compounds is applied to the biofilm. Then the condition of the biofilm is observed to evaluate the biofilm-removing effect of the compound using a fluorescence confocal microscope (Leica TCS SP2: product of Leica).
The bacteria was prepared by inserting a pTdk-LVAgfp plasmid into a Pseudomonas aeruginosa PAO1-strain using the electroportion method so that the Pseudomonas aeruginosa PAO1-strain is transformed to express Green Fluorescent Protein (hereinafter referred to as “gfp expression PAO1-strain”) (see Teresa R. et al., Applied and Environmental Microbiology, April 2001, p. 1865-1873).
A 30 mM glucose-containing FAB culture medium was used for preincubation, and a 0.3 mM glucose-containing FAB culture medium was used for main cultivation.
The glucose-containing FAB culture medium was prepared by adding 200 μg/mL of carbenicillin to an aqueous solution containing 30 mM glucose or 0.3 mM glucose, 15 mM ammonium sulfate, 33.7 mM disodium hydrogenphosphate, 22.1 mM dipotassium hydrogenphosphate, 51.7 mM sodium chloride, 0.47 mM magnesium chloride, 0.08 mM calcium chloride and the following 0.1% trace metal solution.
An aqueous solution containing 1.16 mM calcium sulfate dihydrate, 0.72 mM iron sulfate heptahydrate, 0.08 mM manganous sulfate monohydrate, 0.08 mM copper sulfate pentahydrate, 0.07 mM zinc sulfate heptahydrate, 0.04 mM cobalt sulfate heptahydrate, 0.04 mM […], and 0.08 mM boric acid.
A gfp expression PAO1-strain was inoculated in a 30 mM glucose-containing FAB culture medium, and was subjected to shake culture at 37° C. in an isothermal tank overnight. The obtained overnight culture liquid was diluted by a 30 mM glucose-containing FAB culture medium to OD590=0.1. […]

[2] = test system: biofilm formed by Porphyromonas gingivalis 381-strain; assay: Evaluation test for removing biofilms formed by periodontitis pathogenic bacteria (flow cell system, optical microscope); type: cell-based; conditions: same experiment as Experiment Example 1, Porphyromonas gingivalis 381-strain, 10 days
Experimental: The same experiment as in Experiment Example 1 was conducted except that periodontitis pathogenic bacteria Porphyromonas gingivalis 381-strain (clinical bacteria) was used in place of Pseudomonas aeruginosa PAO1-strain. […] The gradual exfoliation of the deposited biofilm from the cell wall, and the flowing flakes of biofilm exfoliation in the cell were also visually observed.

[3] = test system: autoinducer; conditions: as taught by Patent Document 1 (JP 2006-512290); cited from earlier work

Row | Structure (SMILES) | biofilm removal effect (conclusion) [1] | state of biofilm (removal) [2] | autoinducer agonist activity [3] | state of deposited biofilm observed over time [1]
1 | CCCCCCCCCC(=O)CC(=O)NN1CCCC1 [Compound 1a-1, N-(pyrrolidin-1-yl)-3-oxododecanoyl amide] | effective for removing deposited biofilms | nearly the entire biofilm was removed in 10 days | – | –
2 | CCCCCCCCCC(=O)CC(=O)NN1CCCCC1 [drawing 7] | – | – | exhibits autoinducer agonist activity | –
3 | CCCCCCCCCC(=O)CC(=O)NN1CCCCC1 [Compound 1a-2, N-(piperidine-1-yl)-3-oxododecanoyl amide] | effective for removing deposited biofilms | nearly the entire biofilm was removed in 10 days | – | gradual disappearance of the deposited biofilm with time was observed
4 | CCCCCCCCCC(=O)CC(=O)Nc1ccccc1O [Comparative Compound 1, reference compound] | – | – | – | a similar biofilm formation to that of the control test using the control test liquid was observed
